Test results published in the NIST ThermoML archive (doi:10.1016/j.jct.2019.02.003).
Numbers after ± are expanded uncertainties.

Settings: 84 kPa, Liquid, Pycnometric method

CN(CCO)CCO [N-methyldiethanolamine]
Settings | mass density [kg/m3]
293.15 K | 1041.12 ± 1.9
303.15 K | 1033.6 ± 1.9
313.15 K | 1025.83 ± 1.9
323.15 K | 1017.8 ± 1.9
333.15 K | 1010.8 ± 1.9
343.15 K | 1002.76 ± 1.9
